From patent publication US5681823A, “P^1, P^4 -dithio-P^2 -P^3 -monochloromethylene 5', 5'"-diadenosine P^1, P^4 -tetraphosphate as antithrombotic agent” (PRP Inc., priority 1996, dated 1997)
Read-outs that look alike come from different tables or passages of the source.

Assays:
[1] = tested on: ADP-induced platelet aggregation; thrombus formation; settings: in words; cited from earlier work
Platelets = assay: Distribution of ^125 I-labeled CHCl-AP4 A into blood cell fractions: platelets; assay type: binding, human
Protocol: (§1) There are, however, a variety of purinoceptors on other cell types. AP4 A analogues may bind not only to platelets but also to the erythrocytes and leukocytes when whole blood is treated with the agents. […] Platelets were separated by a gradual centrifugation, the packed red cells with buffy coats (leukocytes) were mixed, and fractionated by means of histopaque gradient separation (A. Boyum, Scand J. Clin. Lab. Invest. 21(suppl 97):77 (1968)). The cell fractions were washed twice and final suspensions were counted for cell number and the radioactivity. Percent distribution was calculated based on the CBC data of whole blood. Binding sites are expressed in the values per cells.

Erythrocytes = assay: Distribution of ^125 I-labeled CHCl-AP4 A into blood cell fractions: erythrocytes; assay type: binding, human
Protocol: as §1

[2] = tested on: ADP-induced platelet aggregation; settings: reference agent, kinetic study demonstrated previously (PNAS 1992); read-out: inhibition constant (Ki); cited from earlier work
Leukocytes = assay: Distribution of ^125 I-labeled CHCl-AP4 A into blood cell fractions: leukocytes; assay type: binding, human
Protocol: as §1

[3] = tested on: ADP-induced platelet aggregation; settings: Zamecnik '550 Table 3, read-out: ID50 (the source's name); cited from earlier work
[4] = tested on: ADP-induced platelet aggregation; assay: Inhibition kinetic study, ADP-induced platelet aggregation; assay type: cell-based, human
Protocol: Unless otherwise provided below, the experimental procedures were performed according to the procedures provided in U.S. Pat. No. 5,049.550 (Zamecnik '550), the entire contents of which are incorporated herein by reference. Some alternative procedures (e.g., release reaction, PF3 assays) and a number of additional studies also are provided (e.g., cytoplasmic calcium mobilization, fibrinogen binding site, agonists other than ADP, platelet cAMP and distribution of CHCl-AP4 A into blood components). Blood was collected in a 0.1 volume of 3.8% sodium citrate from healthy human volunteers who had abstained from antiplatelet agents for at least 10 days. Platelet rich plasma (PRP) was separated by a gradual centrifugation and adjusted to 3.3×10^8 platelets per ml plasma. PRP has been utilized in the Examples unless otherwise stated.
An initial screening was performed for inhibitory effects of several agents (including, e.g., thio-CHCl-AP4 A and CHCl-AP4 A as reference agent)) on platelet aggregation induced by ADP. Platelet aggregation was measured with platelet-rich plasma (PKP) by the turbidimetric method of Born (J. Physiol. 162:67, 1962) in an aggregometer (Chrono-log, Model 530 VS). Platelet aggregation induced by 5 μM ADP in the absence or presence of 5 μM agents was examined. […]

[5] = 23 μM, 22° C., 30 minutes, mean of two

| SMILES | effect on thrombus formation on administration to a mammal [1] | Distribution (%) (Platelets; [5]) | Binding Sites (Platelets; gross estimation per cell) | binding sites per surface area, relative value (Platelets; relative, platelets) | Distribution (%) (Erythrocytes; [5]) | Binding Sites (Erythrocytes; gross estimation per cell) | binding sites per surface area, relative value (Erythrocytes; relative, erythrocytes) | Ki [2] [µM] | Distribution (%) (Leukocytes; [5]) | Binding Sites (Leukocytes; gross estimation per cell) | binding sites per surface area, relative value (Leukocytes; relative, leukocytes) | IC50 [3] [µM] | nature of inhibition [4] | Ki ([4]; ADP-induced aggregation, read-out: inhibition constant (Ki)) [µM] |
| --- | --- | --- | --- | --- | --- | --- | --- | --- | --- | --- | --- | --- | --- | --- |
| Nc1ncnc2c1ncn2[C@@H]1O[C@H](COP(=O)(O)OP(=O)(O)C(Cl)P(=O)(O)OP(=O)(O)OC[C@H]2O[C@@H](n3cnc4c(N)ncnc43)[C@H](O)[C@@H]2O)[C@@H](O)[C@H]1O (some centres unmarked) [CHCl-AP4 A] | inhibit thrombus formation | 0.55 | 3.08 × 10^5 per cells | 100 | 2.09 | 5.98 × 10^4 per cells | 1 | 1.1 | 1.94 | 7.39 × 10^7 per cells | 1000 | 3 |  |  |
| Nc1ncnc2c1ncn2[C@@H]1O[C@H](COP(O)(=S)OP(=O)(O)C(Cl)P(=O)(O)OP(O)(=S)OC[C@H]2O[C@@H](n3cnc4c(N)ncnc43)[C@H](O)[C@@H]2O)[C@@H](O)[C@H]1O (some centres unmarked) [Thio-CHCl-AP4 A, P^1, P^4 -dithio -P^2 -P^3 monochloromethylene 5', 5'" diadenosine P^1, P^4 -tetraphosphate] |  |  |  |  |  |  |  |  |  |  |  |  | competitive inhibition | 0.33 |
